Reference: EP0376518B1, “Phospholipid nucleosides” (ELI LILLY AND COMPANY, priority 1988, dated 1990)

Columns and labels:
Type in all cases: in vivo
M-5 ovarian carcinoma [1] = assay: Test 1: M-5 ovarian carcinoma in mice, single dose; details: single dose two days after inoculation; for Toxicity (number of animals which exhibited signs of toxicity): group of 10 mice; for Inhibition (percent inhibition of tumor growth): tumors measured 13 days after inoculation
Text: (§1) Representative compounds of the invention have been tested using murine tumors in female mice to determine their antineoplastic efficacy. Several different tumor systems have been used in these tests, and the compounds have been administered on a number of different dosage schedules. In general, all the tests were started by inoculating female mice with the tumor, subcutaneously. After some number of days delay, intraperitoneal administration of the test compound was begun. Each treatment group consisted of 10 mice, and untreated control groups were included in all experiments. At the completion of the treatment period, the tumors of the control and the treated mice were measured and the mass of them calculated from the measurements. The data are reported here as percent inhibition of tumor growth, based on the tumors of the untreated control mice.
The tumor in this test was M-5 ovarian carcinoma; the compounds were administered as a single dose, two days after inoculation, and the tumors were measured 13 days after inoculation.

M-5 ovarian carcinoma [2] = assay: Test 3: M-5 ovarian carcinoma in mice, daily dose; details: for Toxicity (number of animals which exhibited signs of toxicity): group of 10 mice; for Inhibition (percent inhibition of tumor growth): tumors measured day 15
Text: as §1
The compound of Example 2 was tested against M-5 ovarian carcinoma, giving a daily dose from day 5 to day 14 after inoculation. The tumors were measured on day 15.

Lewis lung carcinoma = assay: Test 9: Lewis lung carcinoma in mice; details: for Toxicity (number of animals which exhibited signs of toxicity): group of 10 mice; for Inhibition (percent inhibition of tumor growth): tumors measured day 11
Text: as §1
The compound of Example 2 was tested against Lewis lung carcinoma, giving doses on days 1, 5 and 9 after inoculation and measuring the tumors on day 11.

colon carcinoma 26 = assay: Test 5: colon carcinoma 26 in mice; details: for Toxicity (number of animals which exhibited signs of toxicity): group of 10 mice; for Inhibition (percent inhibition of tumor growth): tumors measured day 13
Text: as §1
The compound of Example 2 was tested against colon carcinoma 26, giving doses on days 3, 8 and 11 after inoculation, and measuring the tumors on day 13.

6C3HED lymphosarcoma = assay: Test 4: 6C3HED lymphosarcoma in mice; details: for Toxicity (number of animals which exhibited signs of toxicity): group of 10 mice; for Inhibition (percent inhibition of tumor growth): tumors measured day 10
Text: as §1
The compound of Example 2 was tested against 6C3HED lymphosarcoma, giving a dose on days 1, 5 and 9 after inoculation, and measuring the tumors on day 10.

[3] = test system: C3H mammary adenocarcinoma; assay: Test 7: C3H mammary adenocarcinoma in mice; details: for Toxicity (number of animals which exhibited signs of toxicity): group of 10 mice; for Inhibition (percent inhibition of tumor growth): tumors measured day 11
Text: as §1
The compound of Example 2 was tested against C3H mammary adenocarcinoma, giving does on days 1, 5 and 9 after inoculation and measuring the tumors on day 11.

[4] = test system: X-5563 plasma cell myeloma; assay: Test 6: X-5563 plasma cell myeloma in mice; details: for Toxicity (number of animals which exhibited signs of toxicity): group of 10 mice; for Inhibition (percent inhibition of tumor growth): tumors measured day 11
Text: as §1
The compound of Example 2 was tested against X-5563 plasma cell myeloma, giving doses on days 1, 5 and 9 after inoculation and measuring the tumors on day 11.

Madison lung carcinoma = assay: Test 8: Madison lung carcinoma in mice; details: for Toxicity (number of animals which exhibited signs of toxicity): group of 10 mice; for Inhibition (percent inhibition of tumor growth): tumors measured day 11
Text: as §1
The compound of Example 2 was tested against Madison lung carcinoma, giving doses on days 1, 5 and 9 after inoculation and measuring the tumors on day 11.

M-5 ovarian carcinoma [5] = assay: Test 2: M-5 ovarian carcinoma in mice, three doses; details: for Toxicity (number of animals which exhibited signs of toxicity): group of 10 mice; for Inhibition (percent inhibition of tumor growth): tumors measured day 15
Text: as §1
The compound of Example 2 was tested against M-5 ovarian carcinoma. Three doses were administered on days 5, 10 and 13 after inoculation, and the tumors were measured on day 15.

[6] = 0.6 mg/kg intraperitoneal daily from day 5 to day 14 after inoculation
[7] = 1.2 mg/kg intraperitoneal daily from day 5 to day 14 after inoculation
[8] = 2.5 mg/kg intraperitoneal daily from day 5 to day 14 after inoculation
[9] = 5 mg/kg intraperitoneal daily from day 5 to day 14 after inoculation
[10] = 1.8 mg/kg intraperitoneal on days 1, 5 and 9 after inoculation
[11] = 3.8 mg/kg intraperitoneal on days 1, 5 and 9 after inoculation
[12] = 7.5 mg/kg intraperitoneal on days 1, 5 and 9 after inoculation
[13] = 15 mg/kg intraperitoneal on days 1, 5 and 9 after inoculation
[14] = 30 mg/kg intraperitoneal on days 1, 5 and 9 after inoculation
[15] = 1.8 mg/kg intraperitoneal on days 3, 8 and 11 after inoculation
[16] = 3.8 mg/kg intraperitoneal on days 3, 8 and 11 after inoculation
[17] = 7.5 mg/kg intraperitoneal on days 3, 8 and 11 after inoculation
[18] = 15 mg/kg intraperitoneal on days 3, 8 and 11 after inoculation
[19] = 30 mg/kg intraperitoneal on days 3, 8 and 11 after inoculation
[20] = 1.8 mg/kg intraperitoneal on days 5, 10 and 13 after inoculation
[21] = 3.8 mg/kg intraperitoneal on days 5, 10 and 13 after inoculation
[22] = 7.5 mg/kg intraperitoneal on days 5, 10 and 13 after inoculation
[23] = 15 mg/kg intraperitoneal on days 5, 10 and 13 after inoculation
[24] = 30 mg/kg intraperitoneal on days 5, 10 and 13 after inoculation

Question: With CCCCCCCCCCCCCCCCCCC(COP(=O)(O)OP(=O)(O)OC[C@H]1O[C@@H](n2ccc(N)nc2=O)C(F)(F)[C@@H]1O)OCC (stereo partly drawn) [Example 3, 2′-Deoxy-2′,2′-difluorocytidine, 5′-(dihydrogen diphosphate), P′-(2-ethoxyeicosyl) ester] as the compound, how does the “Toxicity (number of animals which exhibited signs of toxicity)” value (M-5 ovarian carcinoma [1]; 50 mg/kg intraperitoneal) read?
Answer: 0/10

Question: What about the “Inhibition (percent inhibition of tumor growth)” value (M-5 ovarian carcinoma [1]; 50 mg/kg intraperitoneal) of the same compound?
Answer: 53%

Question: And the “Toxicity (number of animals which exhibited signs of toxicity)” value (M-5 ovarian carcinoma [1]; 100 mg/kg intraperitoneal)?
Answer: 0/10

Question: What about the “Inhibition (percent inhibition of tumor growth)” value (M-5 ovarian carcinoma [1]; 100 mg/kg intraperitoneal) of the same compound?
Answer: 64%

Question: Which results are given for CCCCCCCCCCCCCCCC(=O)OC[C@H](COP(=O)(O)OP(=O)(O)OC[C@H]1O[C@@H](n2ccc(N)nc2=O)C(F)(F)[C@@H]1O)OC(=O)CCCCCCCCCCCCCCC [Example 2]?
Answer: Toxicity (number of animals which exhibited signs of toxicity) (M-5 ovarian carcinoma [2]; [6]): 0/10; Inhibition (percent inhibition of tumor growth) (M-5 ovarian carcinoma [2]; [6]): 42%; Toxicity (number of animals which exhibited signs of toxicity) (M-5 ovarian carcinoma [2]; [7]): 0/10; Inhibition (percent inhibition of tumor growth) (M-5 ovarian carcinoma [2]; [7]): 58%; Toxicity (number of animals which exhibited signs of toxicity) (M-5 ovarian carcinoma [2]; [8]): 0/10; Inhibition (percent inhibition of tumor growth) (M-5 ovarian carcinoma [2]; [8]): 69%; Toxicity (number of animals which exhibited signs of toxicity) (M-5 ovarian carcinoma [2]; [9]): 0/10; Inhibition (percent inhibition of tumor growth) (M-5 ovarian carcinoma [2]; [9]): 100%; Toxicity (number of animals which exhibited signs of toxicity) (M-5 ovarian carcinoma [2]; 10 mg/kg intraperitoneal daily from day 5 to day 14 after inoculation): 10/10; Toxicity (number of animals which exhibited signs of toxicity) (Lewis lung carcinoma; [10]): 0/10; Inhibition (percent inhibition of tumor growth) (Lewis lung carcinoma; [10]): 6%; Toxicity (number of animals which exhibited signs of toxicity) (Lewis lung carcinoma; [11]): 0/10; Inhibition (percent inhibition of tumor growth) (Lewis lung carcinoma; [11]): 0%; Toxicity (number of animals which exhibited signs of toxicity) (Lewis lung carcinoma; [12]): 0/10; Inhibition (percent inhibition of tumor growth) (Lewis lung carcinoma; [12]): 0%; Toxicity (number of animals which exhibited signs of toxicity) (Lewis lung carcinoma; [13]): 0/10; Inhibition (percent inhibition of tumor growth) (Lewis lung carcinoma; [13]): 0%; Toxicity (number of animals which exhibited signs of toxicity) (Lewis lung carcinoma; [14]): 4/10; Inhibition (percent inhibition of tumor growth) (Lewis lung carcinoma; [14]): 41%; Toxicity (number of animals which exhibited signs of toxicity) (M-5 ovarian carcinoma [1]; 25 mg/kg intraperitoneal): 0/10; Inhibition (percent inhibition of tumor growth) (M-5 ovarian carcinoma [1]; 25 mg/kg intraperitoneal): 72%; Toxicity (number of animals which exhibited signs of toxicity) (M-5 ovarian carcinoma [1]; 50 mg/kg intraperitoneal): 4/10; Inhibition (percent inhibition of tumor growth) (M-5 ovarian carcinoma [1]; 50 mg/kg intraperitoneal): 87%; Toxicity (number of animals which exhibited signs of toxicity) (colon carcinoma 26; [15]): 0/10; Inhibition (percent inhibition of tumor growth) (colon carcinoma 26; [15]): 0%; Toxicity (number of animals which exhibited signs of toxicity) (colon carcinoma 26; [16]): 0/10; Inhibition (percent inhibition of tumor growth) (colon carcinoma 26; [16]): 21%; Toxicity (number of animals which exhibited signs of toxicity) (colon carcinoma 26; [17]): 0/10; Inhibition (percent inhibition of tumor growth) (colon carcinoma 26; [17]): 28%; Toxicity (number of animals which exhibited signs of toxicity) (colon carcinoma 26; [18]): 0/10; Inhibition (percent inhibition of tumor growth) (colon carcinoma 26; [18]): 66%; Toxicity (number of animals which exhibited signs of toxicity) (colon carcinoma 26; [19]): 8/10; Inhibition (percent inhibition of tumor growth) (colon carcinoma 26; [19]): 89%; Toxicity (number of animals which exhibited signs of toxicity) (6C3HED lymphosarcoma; [10]): 0/10; Inhibition (percent inhibition of tumor growth) (6C3HED lymphosarcoma; [10]): 21%; Toxicity (number of animals which exhibited signs of toxicity) (6C3HED lymphosarcoma; [11]): 0/10; Inhibition (percent inhibition of tumor growth) (6C3HED lymphosarcoma; [11]): 32%; Toxicity (number of animals which exhibited signs of toxicity) (6C3HED lymphosarcoma; [12]): 0/10; Inhibition (percent inhibition of tumor growth) (6C3HED lymphosarcoma; [12]): 47%; Toxicity (number of animals which exhibited signs of toxicity) (6C3HED lymphosarcoma; [13]): 0/10; Inhibition (percent inhibition of tumor growth) (6C3HED lymphosarcoma; [13]): 60%; Toxicity (number of animals which exhibited signs of toxicity) (6C3HED lymphosarcoma; [14]): 7/10; Inhibition (percent inhibition of tumor growth) (6C3HED lymphosarcoma; [14]): 98%; Toxicity (number of animals which exhibited signs of toxicity) [3, 10]: 0/10; Inhibition (percent inhibition of tumor growth) [3, 10]: 0%; Toxicity (number of animals which exhibited signs of toxicity) [3, 11]: 0/10; Inhibition (percent inhibition of tumor growth) [3, 11]: 0%; Toxicity (number of animals which exhibited signs of toxicity) [3, 12]: 0/10; Inhibition (percent inhibition of tumor growth) [3, 12]: 22%; Toxicity (number of animals which exhibited signs of toxicity) [3, 13]: 0/10; Inhibition (percent inhibition of tumor growth) [3, 13]: 60%; Toxicity (number of animals which exhibited signs of toxicity) [3, 14]: 6/10; Inhibition (percent inhibition of tumor growth) [3, 14]: 100%; Toxicity (number of animals which exhibited signs of toxicity) [4, 10]: 0/10; Inhibition (percent inhibition of tumor growth) [4, 10]: 0%; Toxicity (number of animals which exhibited signs of toxicity) [4, 11]: 0/10; Inhibition (percent inhibition of tumor growth) [4, 11]: 2%; Toxicity (number of animals which exhibited signs of toxicity) [4, 12]: 0/10; Inhibition (percent inhibition of tumor growth) [4, 12]: 68%; Toxicity (number of animals which exhibited signs of toxicity) [4, 13]: 1/10; Inhibition (percent inhibition of tumor growth) [4, 13]: 84%; Toxicity (number of animals which exhibited signs of toxicity) [4, 14]: 9/10; Inhibition (percent inhibition of tumor growth) [4, 14]: 100%; Toxicity (number of animals which exhibited signs of toxicity) (Madison lung carcinoma; [10]): 0/10; Inhibition (percent inhibition of tumor growth) (Madison lung carcinoma; [10]): 12%; Toxicity (number of animals which exhibited signs of toxicity) (Madison lung carcinoma; [11]): 0/10; Inhibition (percent inhibition of tumor growth) (Madison lung carcinoma; [11]): 18%; Toxicity (number of animals which exhibited signs of toxicity) (Madison lung carcinoma; [12]): 0/10; Inhibition (percent inhibition of tumor growth) (Madison lung carcinoma; [12]): 33%; Toxicity (number of animals which exhibited signs of toxicity) (Madison lung carcinoma; [13]): 0/10; Inhibition (percent inhibition of tumor growth) (Madison lung carcinoma; [13]): 68%; Toxicity (number of animals which exhibited signs of toxicity) (Madison lung carcinoma; [14]): 4/10; Inhibition (percent inhibition of tumor growth) (Madison lung carcinoma; [14]): 76%; Toxicity (number of animals which exhibited signs of toxicity) (M-5 ovarian carcinoma [5]; [20]): 0/10; Inhibition (percent inhibition of tumor growth) (M-5 ovarian carcinoma [5]; [20]): 22%; Toxicity (number of animals which exhibited signs of toxicity) (M-5 ovarian carcinoma [5]; [21]): 0/10; Inhibition (percent inhibition of tumor growth) (M-5 ovarian carcinoma [5]; [21]): 55%; Toxicity (number of animals which exhibited signs of toxicity) (M-5 ovarian carcinoma [5]; [22]): 0/10; Inhibition (percent inhibition of tumor growth) (M-5 ovarian carcinoma [5]; [22]): 61%; Toxicity (number of animals which exhibited signs of toxicity) (M-5 ovarian carcinoma [5]; [23]): 0/10; Inhibition (percent inhibition of tumor growth) (M-5 ovarian carcinoma [5]; [23]): 92%; Toxicity (number of animals which exhibited signs of toxicity) (M-5 ovarian carcinoma [5]; [24]): 2/10; Inhibition (percent inhibition of tumor growth) (M-5 ovarian carcinoma [5]; [24]): 99%
